Starred links: 1 amine or outer side, 2 acyl side, 3 side chain; linkers in the order of their positions; H or OH if unused. Non-standard residues stand in square brackets, D forms with d. Residues, ends and D or L forms follow the SMILES beside them. Groups on a side chain read outwards from the residue. *: point of attachment. C18 diacid = O=C(O)CCCCCCCCCCCCCCCCC(=O)*; αMePhe(2-F) = C[C@](N)(Cc1ccccc1F)C(=O)O; γGlu = O=C(O)[C@H](CCC(=O)[*:2])N[*:1]; αMeY = C[C@](N)(Cc1ccc(O)cc1)C(=O)O; 4Pal = N[C@@H](Cc1ccncc1)C(=O)O; αMeL = CC(C)C[C@](C)(N)C(=O)O; αMeS = C[C@](N)(CO)C(=O)O; Orn = NCCC[C@H](N)C(=O)O; AEEA = NCCOCCOCC(=O)O; Aib = CC(C)(N)C(=O)O
Assays:
Type in all cases: cell-based
hGIPR [1] = biological target: T1, hGIPR (Homo sapiens, UniProt P48546); assay: Functional cAMP activity in the presence of 1% HSA; settings: read-out: cAMP Rel EC50, hGIPR
T1 sequence (P48546 22-466): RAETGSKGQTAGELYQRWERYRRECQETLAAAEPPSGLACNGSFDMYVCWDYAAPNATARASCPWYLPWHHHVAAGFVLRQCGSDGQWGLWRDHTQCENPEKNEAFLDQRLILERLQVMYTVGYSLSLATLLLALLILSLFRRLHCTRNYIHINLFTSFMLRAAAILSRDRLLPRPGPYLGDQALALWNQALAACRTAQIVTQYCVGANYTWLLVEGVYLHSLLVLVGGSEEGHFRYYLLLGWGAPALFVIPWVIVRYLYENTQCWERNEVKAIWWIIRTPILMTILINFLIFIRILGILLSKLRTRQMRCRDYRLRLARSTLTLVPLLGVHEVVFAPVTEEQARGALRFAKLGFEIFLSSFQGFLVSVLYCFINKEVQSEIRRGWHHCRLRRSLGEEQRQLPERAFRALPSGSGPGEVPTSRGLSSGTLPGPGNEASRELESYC

hGLP-1R [2] = biological target: T2, hGLP-1R (Homo sapiens, UniProt P43220); assay: Functional cAMP activity in the presence of 1% HSA; settings: read-out: cAMP Rel EC50, hGLP-1R
human GcgR = human GcgR (Homo sapiens, UniProt P47871); assay: Functional cAMP activity in the presence of 1% HSA; settings: read-out: cAMP Rel EC50, hGcgR
hGIPR [3] = biological target: T1, hGIPR; assay: Functional cAMP activation in the presence of 0.1% casein (no HSA); settings: read-out: Relative cAMP EC50, hGIPR;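 for Relative cAMP EC50, hGIPR: intracellular cAMP rise after 30 min at 37 °C read by HTRF against a standard curve, scaled between buffer alone (0%) and top control ligand concentration (100%), four-parameter fit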;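 for Relative cAMP EC50, hGLP-1R: intracellular cAMP rise after 30 min at 37 °C read by HTRF, normalized between buffer only (0%) and maximal control ligand (100%), four-parameter variable-slope fit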;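 for Relative cAMP EC50, hGcgR: intracellular cAMP rise after 30 min at 37 °C, read by HTRF against a cAMP standard curve, scaled from buffer only (0%) to maximal control ligand response (100%)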
hGLP-1R [4] = biological target: T2, hGLP-1R; assay: as above; settings: read-out: Relative cAMP EC50, hGLP-1R
hGcgR = hGcgR (Homo sapiens, UniProt P47871); assay: as above; settings: read-out: Relative cAMP EC50, hGcgR;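 note: intracellular cAMP rise after 30 min at 37 °C, read by HTRF against a cAMP standard curve, scaled from buffer only (0%) to maximal control ligand response (100%)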
hGcgR, sequence (P47871 26-477): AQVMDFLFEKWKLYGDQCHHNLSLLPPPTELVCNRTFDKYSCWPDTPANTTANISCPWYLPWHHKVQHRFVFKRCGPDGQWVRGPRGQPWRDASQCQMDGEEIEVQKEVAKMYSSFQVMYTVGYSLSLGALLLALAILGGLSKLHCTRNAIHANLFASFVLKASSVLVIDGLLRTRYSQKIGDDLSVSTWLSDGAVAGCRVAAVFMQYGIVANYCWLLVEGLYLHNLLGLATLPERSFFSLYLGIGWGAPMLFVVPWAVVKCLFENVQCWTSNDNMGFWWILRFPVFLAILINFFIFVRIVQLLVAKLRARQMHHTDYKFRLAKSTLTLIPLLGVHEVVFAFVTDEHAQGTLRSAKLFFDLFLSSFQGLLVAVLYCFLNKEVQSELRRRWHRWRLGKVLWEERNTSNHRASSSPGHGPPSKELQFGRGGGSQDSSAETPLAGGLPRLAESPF

human GcgR, sequence (P47871 26-477): as above
T2 sequence (P43220 24-463): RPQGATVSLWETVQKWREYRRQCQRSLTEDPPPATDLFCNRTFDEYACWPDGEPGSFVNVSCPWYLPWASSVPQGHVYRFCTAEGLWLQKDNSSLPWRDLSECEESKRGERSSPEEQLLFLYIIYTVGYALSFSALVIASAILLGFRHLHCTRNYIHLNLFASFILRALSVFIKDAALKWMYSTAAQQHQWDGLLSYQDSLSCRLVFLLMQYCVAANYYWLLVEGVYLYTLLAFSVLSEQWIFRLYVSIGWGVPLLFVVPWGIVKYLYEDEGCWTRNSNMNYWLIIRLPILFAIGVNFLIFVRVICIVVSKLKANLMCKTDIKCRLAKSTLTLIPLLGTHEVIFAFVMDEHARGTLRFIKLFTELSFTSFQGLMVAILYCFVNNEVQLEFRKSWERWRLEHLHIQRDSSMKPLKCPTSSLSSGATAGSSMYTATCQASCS

CC[C@H](C)[C@H](NC(=O)[C@H](CC(C)C)NC(=O)[C@](C)(Cc1ccc(O)cc1)NC(=O)[C@@H](CCC(=O)O)NC(=O)[C@@H](NC(=O)[C@H](Cc1ccccc1)NC(=O)[C@H](CC(N)=O)NC(=O)C(C)(C)NC(=O)[C@H](CCC(N)=O)NC(=O)[C@H](C)NC(=O)[C@H](CCCCNC(=O)COCCOCCNC(=O)CC[C@H](NC(=O)CCCCCCCCCCCCCCCCC(=O)O)C(=O)O)NC(=O)[C@H](CCCN)NC(=O)[C@H](CC(=O)O)NC(=O)[C@H](CC(C)C)NC(=O)[C@](C)(CC(C)C)NC(=O)[C@@H](NC(=O)[C@](C)(CO)NC(=O)[C@H](Cc1ccncc1)NC(=O)[C@H](CC(=O)O)NC(=O)[C@H](CO)NC(=O)[C@@H](NC(=O)[C@](C)(Cc1ccccc1F)NC(=O)[C@@H](NC(=O)CNC(=O)[C@H](CCC(N)=O)NC(=O)C(C)(C)NC(=O)[C@@H](N)Cc1ccc(O)cc1)[C@@H](C)O)[C@@H](C)O)[C@@H](C)CC)[C@@H](C)CC)C(=O)N[C@@H](CCC(=O)O)C(=O)NCC(=O)NCC(=O)N1CCC[C@H]1C(=O)N[C@@H](CO)C(=O)N[C@@H](CO)C(=O)NCC(=O)N[C@@H](CCC(=O)O)C(=O)N1CCC[C@H]1C(=O)N1CCC[C@H]1C(=O)N1CCC[C@H]1C(=O)N[C@@H](CCC(=O)O)C(N)=O [Example 456] (H-Y[Aib]QGT[αMePhe(2-F)]TSD[4Pal][αMeS]I[αMeL]LD[Orn]K([AEEA-γGlu-C18 diacid])AQ[Aib]NFI[dE][αMeY]LIEGGPSSGEPPPE-NH2)
EC50 (hGIPR [1]): 0.993 nM | EC50 (hGLP-1R [2]): 12.5 nM | EC50 (human GcgR): 230 nM | EC50 (hGIPR [3]): 0.00913 nM | EC50 (hGLP-1R [4]): 0.19 nM | EC50 (hGcgR): 3.48 nM

CC[C@H](C)[C@H](NC(=O)[C@H](CC(C)C)NC(=O)[C@H](Cc1ccc(O)cc1)NC(=O)[C@@H](CCC(=O)O)NC(=O)[C@@H](NC(=O)[C@H](Cc1ccccc1)NC(=O)[C@H](CCCN)NC(=O)C(C)(C)NC(=O)[C@H](CCC(N)=O)NC(=O)[C@H](C)NC(=O)[C@H](CCCCNC(=O)COCCOCCNC(=O)CC[C@H](NC(=O)CCCCCCCCCCCCCCCCC(=O)O)C(=O)O)NC(=O)[C@H](CCCN)NC(=O)[C@H](CC(=O)O)NC(=O)[C@H](CC(C)C)NC(=O)[C@](C)(CC(C)C)NC(=O)[C@@H](NC(=O)[C@](C)(CO)NC(=O)[C@H](Cc1ccncc1)NC(=O)[C@H](CC(=O)O)NC(=O)[C@H](CO)NC(=O)[C@@H](NC(=O)[C@](C)(Cc1ccccc1F)NC(=O)[C@@H](NC(=O)CNC(=O)[C@H](CCC(N)=O)NC(=O)C(C)(C)NC(=O)[C@@H](N)Cc1ccc(O)cc1)[C@@H](C)O)[C@@H](C)O)[C@@H](C)CC)[C@@H](C)CC)C(=O)N[C@@H](CCC(=O)O)C(=O)NCC(=O)NCC(=O)N1CCC[C@H]1C(=O)N[C@@H](CO)C(=O)N[C@@H](CO)C(=O)NCC(=O)N[C@@H](CCC(=O)O)C(=O)N1CCC[C@H]1C(=O)N1CCC[C@H]1C(=O)N1CCC[C@H]1C(=O)N[C@@H](CCC(=O)O)C(N)=O [Example 458] (H-Y[Aib]QGT[αMePhe(2-F)]TSD[4Pal][αMeS]I[αMeL]LD[Orn]K([AEEA-γGlu-C18 diacid])AQ[Aib][Orn]FI[dE]YLIEGGPSSGEPPPE-NH2)
EC50 (hGIPR [1]): 8.07 nM | EC50 (hGLP-1R [2]): 22.7 nM | EC50 (human GcgR): 319 nM | EC50 (hGIPR [3]): 0.0448 nM | EC50 (hGLP-1R [4]): 0.347 nM | EC50 (hGcgR): 5.29 nM

CC[C@H](C)[C@H](NC(=O)[C@H](CC(C)C)NC(=O)[C@H](Cc1ccc(O)cc1)NC(=O)[C@H](CCC(=O)O)NC(=O)[C@@H](NC(=O)[C@H](Cc1ccccc1)NC(=O)[C@H](CCCN)NC(=O)C(C)(C)NC(=O)[C@H](CCC(N)=O)NC(=O)[C@H](C)NC(=O)[C@H](CCCCNC(=O)COCCOCCNC(=O)CC[C@H](NC(=O)CCCCCCCCCCCCCCCCC(=O)O)C(=O)O)NC(=O)[C@H](CCCN)NC(=O)[C@H](CC(=O)O)NC(=O)[C@H](CC(C)C)NC(=O)[C@](C)(CC(C)C)NC(=O)[C@@H](NC(=O)[C@](C)(CO)NC(=O)[C@H](Cc1ccncc1)NC(=O)[C@H](CC(=O)O)NC(=O)[C@H](CO)NC(=O)[C@@H](NC(=O)[C@](C)(Cc1ccccc1F)NC(=O)[C@@H](NC(=O)CNC(=O)[C@H](CCC(N)=O)NC(=O)C(C)(C)NC(=O)[C@@H](N)Cc1ccc(O)cc1)[C@@H](C)O)[C@@H](C)O)[C@@H](C)CC)[C@@H](C)CC)C(=O)N[C@@H](CCC(=O)O)C(=O)NCC(=O)NCC(=O)N1CCC[C@H]1C(=O)N[C@@H](CO)C(=O)N[C@@H](CO)C(=O)NCC(=O)N[C@@H](CCC(=O)O)C(=O)N1CCC[C@H]1C(=O)N1CCC[C@H]1C(=O)N1CCC[C@H]1C(=O)N[C@@H](CCC(=O)O)C(N)=O [Example 459] (H-Y[Aib]QGT[αMePhe(2-F)]TSD[4Pal][αMeS]I[αMeL]LD[Orn]K([AEEA-γGlu-C18 diacid])AQ[Aib][Orn]FIEYLIEGGPSSGEPPPE-NH2)
EC50 (hGIPR [1]): 2.06 nM | EC50 (hGLP-1R [2]): 12.6 nM | EC50 (human GcgR): 73.6 nM | EC50 (hGIPR [3]): 0.0122 nM | EC50 (hGLP-1R [4]): 0.179 nM | EC50 (hGcgR): 1.21 nM

CC[C@H](C)[C@H](NC(=O)[C@H](Cc1ccccc1)NC(=O)[C@H](CCCN)NC(=O)C(C)(C)NC(=O)[C@H](CCC(N)=O)NC(=O)[C@H](C)NC(=O)[C@H](CCCCNC(=O)COCCOCCNC(=O)CC[C@H](NC(=O)CCCCCCCCCCCCCCCCC(=O)O)C(=O)O)NC(=O)[C@H](CCCN)NC(=O)[C@H](CC(=O)O)NC(=O)[C@H](CC(C)C)NC(=O)[C@](C)(CC(C)C)NC(=O)[C@@H](NC(=O)[C@](C)(CO)NC(=O)[C@H](Cc1ccncc1)NC(=O)[C@H](CC(=O)O)NC(=O)[C@H](CO)NC(=O)[C@@H](NC(=O)[C@](C)(Cc1ccccc1F)NC(=O)[C@@H](NC(=O)CNC(=O)[C@H](CCC(N)=O)NC(=O)C(C)(C)NC(=O)[C@@H](N)Cc1ccc(O)cc1)[C@@H](C)O)[C@@H](C)O)[C@@H](C)CC)C(=O)N[C@H](CCC(=O)O)C(=O)N[C@@H](Cc1ccc(O)cc1)C(=O)N[C@@H](CC(C)C)C(=O)N[C@@H](CC(C)C)C(=O)N[C@@H](CCC(=O)O)C(=O)NCC(=O)NCC(=O)N1CCC[C@H]1C(=O)N[C@@H](CO)C(=O)N[C@@H](CO)C(=O)NCC(=O)N[C@@H](CCC(=O)O)C(=O)N1CCC[C@H]1C(=O)N1CCC[C@H]1C(=O)N1CCC[C@H]1C(=O)N[C@@H](CCC(=O)O)C(N)=O [Example 460] (H-Y[Aib]QGT[αMePhe(2-F)]TSD[4Pal][αMeS]I[αMeL]LD[Orn]K([AEEA-γGlu-C18 diacid])AQ[Aib][Orn]FI[dE]YLLEGGPSSGEPPPE-NH2)
EC50 (hGIPR [1]): 8.93 nM | EC50 (hGLP-1R [2]): 31.1 nM | EC50 (human GcgR): 142 nM | EC50 (hGIPR [3]): 0.0624 nM | EC50 (hGLP-1R [4]): 0.636 nM | EC50 (hGcgR): 1.89 nM

Source: US20240270821A1, “GIP/GLP1/GCG TRI-RECEPTOR AGONISTS AND USES THEREOF” (priority 2023, published 2024)
